Reference: US9193665B2, “Synthesis of galanal compounds and analogues thereof” (Academia Sinica, priority 2013, dated 2015)

Assays:
[1] = biological target: T1, GLP-1 receptor (Rattus norvegicus, UniProt P32301); assay: GLP-1 dependent cAMP production from RIN-m5F cells (ELISA); assay type: cell-based; details: 0.001 mg/ml compound
T1 construct: endogenous in cells; host or cells: RIN-m5F cells
T1 sequence (P32301 22-463): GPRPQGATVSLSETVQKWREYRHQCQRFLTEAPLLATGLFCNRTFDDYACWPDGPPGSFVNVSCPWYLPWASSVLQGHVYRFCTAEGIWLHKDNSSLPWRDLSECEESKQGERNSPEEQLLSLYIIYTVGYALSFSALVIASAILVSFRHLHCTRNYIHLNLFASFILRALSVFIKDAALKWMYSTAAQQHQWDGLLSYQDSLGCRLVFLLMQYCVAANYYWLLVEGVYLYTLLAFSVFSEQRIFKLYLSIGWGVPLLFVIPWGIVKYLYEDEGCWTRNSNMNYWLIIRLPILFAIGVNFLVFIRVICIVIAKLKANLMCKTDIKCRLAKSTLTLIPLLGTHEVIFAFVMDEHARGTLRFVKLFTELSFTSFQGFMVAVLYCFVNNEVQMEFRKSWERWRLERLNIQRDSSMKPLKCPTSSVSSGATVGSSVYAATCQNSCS
Method: The cells were cultured in 37° C. with 5% CO2 for 42 hours prior to cAMP production experiment.
The stimulation process was terminated by replacing the stimulation medium with 0.05 ml per well of ice-cold absolute ethanol, and further incubated at −20° C. for 20 min. The cellular cAMP was extracted with 0.085 ml PBS after the ethanol in the wells were evaporated in a vacuum desiccator for 35 min.
The total cAMP from each well was determined by ELISA method according the procedure recommended by the supplier.

[2] = tested on: DIO mice; assay: Oral glucose tolerance test (OGTT) in diet-induced obese (DIO) mice; assay type: in vivo; details: fasted DIO mice, compound by gavage 30 min before oral glucose 2 g/kg, glucose measured 0-90 min, FIG. 2A/2B
Method: DIO mice were male C56BL/6J-Narl mice at age of 13 to 15 weeks that have been fed with Western Diet (TestDiet 5342) for 6 to 8 weeks. DIO mice were fasted for five hours and then gavaged with a compound described herein (e.g., compounds RJ21 and RJ27) at indicated dose or with vehicle alone. Thirty minutes later, the mice were gavaged with glucose (2 g/kg body weight). The level of blood glucose was measured right before and every 30 minutes after the glucose challenge up to 90 minutes. The data are expressed as mean±SD and analyzed by Student's t-test using Prism (GraphPad).
The effect of the compounds to the homeostasis of blood glucose using oral glucose tolerance test (OGTT) was examined in this example. Fasted DIO mice were gavaged with RJ21, RJ27, or vehicle alone, and received an oral glucose challenge (2 g/kg body weight) 30 minutes later. The level of blood glucose was measured right before (0 minute) and every 30 minutes after the glucose gavage.

Compound | potentiation of the effect of GLP-1 on cAMP production (factor) ([1]; 30 nM GLP-1, RIN-m5F cells, 15 min) | cAMP generation by the compound by itself (agonist effect) ([1]; RIN-m5F cells, little cAMP response at 3 nM GLP-1) | blood glucose level versus vehicle-treated mice [2]
galanal B [RJ21] | 2 | did not affect | significantly lower
COC(=O)C1=CC[C@H]2[C@@](C=O)(CCC3C(C)(C)CCC[C@@]32C)[C@H](O)C1 (stereo partly shown) [RJ27] |  |  | significantly lower
